Converted amounts (≈) assume the structure as drawn.
Assays:
Rattus norvegicus [1] = experiment: (§1) Anti-inflammatory activity in Brown Norway rat model of ovalbumin-induced inflammation assessed inhibition of eosinophil infiltration in bronchoalveolar lavage at 0.3 mg/kg, it administered 1 hr before ovalbumin aerosol challenge and measured 24 hrs post challenge by hematology analysis relative to control; type: functional; settings: inhaled or nasal
[2] = Half life in Wistar rat at 1 mg/kg, iv; type: ADME, organism-based; settings: in vivo
[3] = Drug metabolism in rat liver microsomes assessed as disappearance of parent compound at 5 uM after 30 mins in presence of NADPH by UPLC-MS/MS analysis; type: ADME, microsome; settings: read-out: Drug metabolism
[4] = AUC in Wistar rat lung at 0.015 mg/kg, it administered as solution; type: ADME, organism-based; settings: in vivo, inhaled_or_intranasal
[5] = molecular target: Voltage-gated inwardly rectifying potassium channel KCNH2 (Homo sapiens, UniProt Q12809); experiment: Inhibition of human ERG up to 10 uM
[6] = molecular target: T1, Phosphatidylinositol 4,5-bisphosphate 3-kinase catalytic subunit delta isoform (Homo sapiens, UniProt O00329); experiment: Inhibition of PI3Kdelta in human THP-1 cells assessed as reduction in M-CSF-stimulated AKT phosphorylation at Thr308 preincubated for 30 mins followed by M-CSF addition for 3 mins by ELISA; type: cell-based
T1 sequence (O00329 whole entry): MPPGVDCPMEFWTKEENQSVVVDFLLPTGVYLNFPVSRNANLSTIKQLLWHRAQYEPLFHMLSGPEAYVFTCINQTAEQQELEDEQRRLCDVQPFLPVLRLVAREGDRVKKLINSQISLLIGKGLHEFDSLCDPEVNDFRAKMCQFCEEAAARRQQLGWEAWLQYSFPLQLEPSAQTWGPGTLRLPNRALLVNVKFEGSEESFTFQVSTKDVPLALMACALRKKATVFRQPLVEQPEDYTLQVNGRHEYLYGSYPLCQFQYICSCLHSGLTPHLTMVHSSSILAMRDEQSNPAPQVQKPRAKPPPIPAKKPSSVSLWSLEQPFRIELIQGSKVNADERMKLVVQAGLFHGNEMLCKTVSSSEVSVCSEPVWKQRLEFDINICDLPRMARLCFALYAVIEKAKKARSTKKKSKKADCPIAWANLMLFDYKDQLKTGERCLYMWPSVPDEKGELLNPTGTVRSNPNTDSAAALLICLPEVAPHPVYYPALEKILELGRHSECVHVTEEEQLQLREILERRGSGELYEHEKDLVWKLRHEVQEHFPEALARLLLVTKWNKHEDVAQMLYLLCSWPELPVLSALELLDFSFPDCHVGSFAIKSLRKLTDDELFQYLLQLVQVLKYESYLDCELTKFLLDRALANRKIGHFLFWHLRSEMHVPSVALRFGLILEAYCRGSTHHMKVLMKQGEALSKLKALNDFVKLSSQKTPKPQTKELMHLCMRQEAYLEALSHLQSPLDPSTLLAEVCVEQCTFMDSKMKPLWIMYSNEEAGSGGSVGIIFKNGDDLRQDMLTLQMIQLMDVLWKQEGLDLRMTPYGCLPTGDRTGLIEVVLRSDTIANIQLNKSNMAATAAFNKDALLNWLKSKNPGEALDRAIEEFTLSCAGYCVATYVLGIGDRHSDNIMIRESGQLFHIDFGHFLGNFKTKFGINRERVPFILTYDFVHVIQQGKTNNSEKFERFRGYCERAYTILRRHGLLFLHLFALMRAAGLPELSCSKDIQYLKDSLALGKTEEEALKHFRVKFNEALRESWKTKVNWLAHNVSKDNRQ

[7] = AUC in Wistar rat plasma at 0.015 mg/kg, it administered as solution; type: ADME, organism-based; settings: inhaled or intranasal
PI3K p110 beta/p85 alpha = PI3K p110 beta/p85 alpha (Homo sapiens, UniProt P42338)
Description: Inhibition of recombinant human N-terminal His6-tagged full length p110beta/recombinant human full length p85alpha using PIP2 as substrate preincubated for 30 mins followed by substrate addition and HTRF assay

[8] = Cmax in Wistar rat at 1 mg/kg, iv; type: ADME, organism-based; set-up: dose 1 mg/kg, route intravenous; settings: in vivo
[9] = Half life in Wistar rat plasma at 0.015 mg/kg, it administered as solution; type: ADME, organism-based; settings: inhaled or intranasal
[10] = Ratio of AUC in lung to plasma of Wistar rat at 0.3 mg/kg, it administered as suspension; type: ADME, organism-based
[11] = Thermodynamic aqueous solubility of the compound at pH 7.4; type: physicochemical; settings: buffer, read-out: Therm_solubility
[12] = molecular target: PI3-kinase p110-delta/p85-alpha (Homo sapiens, UniProt O00329)
Description: Inhibition of recombinant human N-terminal His-tagged full length p110delta/recombinant human full length p85alpha using PIP2 as substrate preincubated for 30 mins followed by substrate addition by HTRF assay

Rattus norvegicus [13] = experiment: as §1, with “0.1” for “0.3”; type: functional; settings: inhaled or nasal
[14] = molecular target: PI3-kinase p110-alpha/p85-alpha (Homo sapiens, UniProt P42336)
Description: Inhibition of recombinant human N-terminal His6-tagged full length p110alpha/recombinant human full length p85alpha using PIP2 as substrate preincubated for 30 mins followed by substrate addition by HTRF assay

[15] = Drug metabolism in human liver microsomes assessed as disappearance of parent compound at 5 uM after 30 mins in presence of NADPH by UPLC-MS/MS analysis; type: ADME, microsome; settings: read-out: Drug metabolism
[16] = Ratio of AUC in lung to plasma of Wistar rat at 0.015 mg/kg, it administered as solution; type: ADME, organism-based
[17] = Half life in Wistar rat lung at 0.015 mg/kg, it administered as solution; type: ADME, organism-based; settings: inhaled or intranasal
[18] = Half life in Wistar rat plasma at 0.3 mg/kg, it administered as suspension; type: ADME, organism-based; settings: inhaled or intranasal
[19] = AUC in Wistar rat lung at 0.3 mg/kg, it administered as suspension; type: ADME, organism-based; settings: in vivo, inhaled_or_intranasal
[20] = AUC in Wistar rat at 1 mg/kg, iv; type: ADME, organism-based; settings: in vivo
[21] = Drug metabolism in human liver microsomes assessed as disappearance of parent compound at 5 uM preincubated for 3 mins followed UDPG addition and measured after 120 mins by UPLC-MS/MS analysis; type: ADME, microsome; settings: read-out: Drug metabolism
Rattus norvegicus [22] = experiment: as §1, with “neutrophil” for “eosinophil”; type: functional; settings: inhaled or nasal
[23] = Clearance in Wistar rat at 1 mg/kg, iv; type: ADME, organism-based; settings: in vivo
[24] = Drug metabolism in rat liver microsomes assessed as disappearance of parent compound at 5 uM preincubated for 3 mins followed UDPG addition and measured after 120 mins by UPLC-MS/MS analysis; type: ADME, microsome; settings: read-out: Drug metabolism
[25] = AUC in Wistar rat plasma at 0.3 mg/kg, it administered as suspension; type: ADME, organism-based; settings: inhaled or intranasal
[26] = Volume of distribution at steady state in Wistar rat at 1 mg/kg, iv; type: ADME, organism-based; settings: in vivo, read-out: Vdss
[27] = Protein binding in rat plasma at 1 uM by equilibrium dialysis; type: ADME, cell-free; settings: read-out: PPB (converted)
[28] = Oral bioavailability in Wistar rat at 1 mg/kg; type: ADME, organism-based; settings: in vivo
[29] = Cmax in Wistar rat lung at 0.015 mg/kg, it administered as solution; type: ADME, organism-based; set-up: dose 0.015 mg/kg; settings: inhaled or intranasal
Rattus norvegicus [30] = experiment: as §1, with “neutrophils” for “eosinophil”, “0.1” for “0.3”; type: functional; settings: inhaled or nasal
[31] = Cmax in Wistar rat lung at 0.3 mg/kg, it administered as suspension; type: ADME, organism-based; set-up: dose 0.3 mg/kg; settings: inhaled or intranasal
[32] = Cmax in Wistar rat plasma at 0.015 mg/kg, it administered as solution; type: ADME, organism-based; set-up: dose 0.015 mg/kg; settings: inhaled or intranasal
[33] = Half life in Wistar rat lung at 0.3 mg/kg, it administered as suspension; type: ADME, organism-based; settings: inhaled or intranasal
[34] = Apparent permeability of the compound at 20 uM by PAMPA assay; type: ADME
[35] = Cmax in Wistar rat plasma at 0.3 mg/kg, it administered as suspension; type: ADME, organism-based; set-up: dose 0.3 mg/kg; settings: inhaled or intranasal
[36] = molecular target: Phosphatidylinositol 4,5-bisphosphate 3-kinase catalytic subunit gamma isoform (Homo sapiens, UniProt P48736); experiment: Inhibition of recombinant human N-terminal His6-tagged full length p110gamma using PIP2 as substrate preincubated for 30 mins followed by substrate addition by HTRF assay
Rattus norvegicus [37] = experiment: fCmax in Brown Norway rat model of ovalbumin-induced inflammation assessed inhibition of eosinophil infiltration in bronchoalveolar lavage at 0.3 mg/kg, it administered 1 hr before ovalbumin aerosol challenge and measured 24 hrs post challenge by hematology analysis relative to control; type: organism-based; settings: in vivo, inhaled_or_intranasal
Rattus norvegicus [38] = experiment: as §1, with “neutrophil” for “eosinophil”, “1” for “0.3”; type: functional; settings: inhaled or nasal
[39] = molecular target: T2, Phosphatidylinositol 4,5-bisphosphate 3-kinase catalytic subunit delta isoform (Mus musculus, UniProt O35904); experiment: Inhibition of mouse ABD-truncated p110delta catalytic subunit (unknown origin) expressed in Sf9 cells using diC8-PIP2 substrate incubated for 1 hr by fluorescence polarization assay
T2 sequence (O35904 whole entry): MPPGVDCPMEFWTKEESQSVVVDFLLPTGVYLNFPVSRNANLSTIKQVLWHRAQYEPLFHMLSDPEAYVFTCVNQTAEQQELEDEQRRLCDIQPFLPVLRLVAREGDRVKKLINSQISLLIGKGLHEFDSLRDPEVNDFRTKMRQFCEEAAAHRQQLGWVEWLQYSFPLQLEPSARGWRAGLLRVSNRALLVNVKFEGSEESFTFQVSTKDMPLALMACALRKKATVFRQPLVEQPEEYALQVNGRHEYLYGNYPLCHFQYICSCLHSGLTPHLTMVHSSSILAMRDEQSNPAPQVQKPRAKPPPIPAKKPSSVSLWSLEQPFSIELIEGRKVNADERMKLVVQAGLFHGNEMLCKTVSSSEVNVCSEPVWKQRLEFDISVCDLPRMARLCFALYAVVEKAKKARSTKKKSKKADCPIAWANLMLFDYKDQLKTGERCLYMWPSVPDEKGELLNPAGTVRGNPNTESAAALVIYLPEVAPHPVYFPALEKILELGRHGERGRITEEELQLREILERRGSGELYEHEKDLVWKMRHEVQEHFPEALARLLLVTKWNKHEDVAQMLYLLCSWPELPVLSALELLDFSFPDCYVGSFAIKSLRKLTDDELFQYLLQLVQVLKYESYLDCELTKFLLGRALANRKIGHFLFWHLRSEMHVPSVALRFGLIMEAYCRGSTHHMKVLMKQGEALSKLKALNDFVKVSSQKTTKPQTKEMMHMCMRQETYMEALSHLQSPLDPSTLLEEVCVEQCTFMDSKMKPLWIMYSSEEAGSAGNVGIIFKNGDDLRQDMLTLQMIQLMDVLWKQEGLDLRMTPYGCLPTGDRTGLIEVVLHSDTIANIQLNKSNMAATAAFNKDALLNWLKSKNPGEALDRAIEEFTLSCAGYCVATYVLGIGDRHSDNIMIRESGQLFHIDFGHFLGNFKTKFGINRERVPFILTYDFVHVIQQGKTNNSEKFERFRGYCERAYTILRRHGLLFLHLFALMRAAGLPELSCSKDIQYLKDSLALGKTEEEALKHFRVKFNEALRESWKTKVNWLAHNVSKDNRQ

[40] = other tissue, inhaled_or_intranasal
[41] = Wistar, lung and plasma, inhaled or intranasal

Chain of Phosphatidylinositol 4,5-bisphosphate 3-kinase catalytic subunit gamma isoform (P48736 whole entry, canonical isoform): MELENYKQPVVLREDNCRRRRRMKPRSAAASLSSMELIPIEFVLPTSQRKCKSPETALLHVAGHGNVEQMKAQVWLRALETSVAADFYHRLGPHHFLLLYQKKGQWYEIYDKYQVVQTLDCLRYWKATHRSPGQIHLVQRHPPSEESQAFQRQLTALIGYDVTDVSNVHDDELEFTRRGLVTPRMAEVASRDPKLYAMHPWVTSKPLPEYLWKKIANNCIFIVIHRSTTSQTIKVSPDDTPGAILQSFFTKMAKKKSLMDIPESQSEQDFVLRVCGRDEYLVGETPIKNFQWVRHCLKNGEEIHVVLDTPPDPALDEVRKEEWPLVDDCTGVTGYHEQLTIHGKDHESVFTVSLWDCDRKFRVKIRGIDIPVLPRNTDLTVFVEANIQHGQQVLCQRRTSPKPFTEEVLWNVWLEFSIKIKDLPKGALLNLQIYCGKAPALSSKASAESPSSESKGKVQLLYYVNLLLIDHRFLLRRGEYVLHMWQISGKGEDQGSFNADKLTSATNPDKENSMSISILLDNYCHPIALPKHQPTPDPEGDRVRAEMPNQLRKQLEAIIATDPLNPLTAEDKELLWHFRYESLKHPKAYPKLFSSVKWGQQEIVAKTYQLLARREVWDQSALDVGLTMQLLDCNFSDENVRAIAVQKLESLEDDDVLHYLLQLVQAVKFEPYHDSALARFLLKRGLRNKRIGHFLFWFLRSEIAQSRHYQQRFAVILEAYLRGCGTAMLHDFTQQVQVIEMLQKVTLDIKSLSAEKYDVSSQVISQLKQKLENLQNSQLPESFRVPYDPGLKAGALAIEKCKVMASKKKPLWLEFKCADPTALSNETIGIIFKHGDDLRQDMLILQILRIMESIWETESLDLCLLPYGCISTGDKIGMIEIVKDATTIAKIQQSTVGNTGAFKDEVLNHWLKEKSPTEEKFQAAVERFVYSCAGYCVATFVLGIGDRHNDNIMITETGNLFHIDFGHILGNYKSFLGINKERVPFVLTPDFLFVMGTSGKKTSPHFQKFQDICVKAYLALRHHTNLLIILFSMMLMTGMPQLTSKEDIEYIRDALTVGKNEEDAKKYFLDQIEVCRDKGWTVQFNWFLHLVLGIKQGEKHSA
Chain of PI3-kinase p110-delta/p85-alpha (P27986 whole entry, one chain of several): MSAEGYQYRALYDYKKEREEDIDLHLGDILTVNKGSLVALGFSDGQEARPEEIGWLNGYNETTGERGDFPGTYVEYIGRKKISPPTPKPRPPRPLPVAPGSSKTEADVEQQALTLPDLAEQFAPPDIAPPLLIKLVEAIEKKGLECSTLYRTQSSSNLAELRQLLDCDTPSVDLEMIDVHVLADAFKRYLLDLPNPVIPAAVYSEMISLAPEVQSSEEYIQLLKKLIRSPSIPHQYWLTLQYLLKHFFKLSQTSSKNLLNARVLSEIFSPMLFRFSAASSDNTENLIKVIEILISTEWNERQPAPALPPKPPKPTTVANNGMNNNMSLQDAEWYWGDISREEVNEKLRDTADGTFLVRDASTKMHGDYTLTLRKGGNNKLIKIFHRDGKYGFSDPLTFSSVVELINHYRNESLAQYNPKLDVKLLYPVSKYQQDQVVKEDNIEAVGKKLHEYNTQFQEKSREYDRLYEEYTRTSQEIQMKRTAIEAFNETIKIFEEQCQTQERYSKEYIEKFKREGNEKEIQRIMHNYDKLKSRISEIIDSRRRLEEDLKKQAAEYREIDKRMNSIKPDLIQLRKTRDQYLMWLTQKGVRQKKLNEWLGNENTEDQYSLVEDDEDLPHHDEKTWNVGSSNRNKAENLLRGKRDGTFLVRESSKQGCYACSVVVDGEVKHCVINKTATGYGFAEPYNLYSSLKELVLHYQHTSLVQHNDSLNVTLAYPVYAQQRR
Chain of PI3K p110 beta/p85 alpha (P27986 whole entry): as the sequence (P27986 whole entry, one chain of several) above
Chain of PI3K p110 beta/p85 alpha (P42338 whole entry): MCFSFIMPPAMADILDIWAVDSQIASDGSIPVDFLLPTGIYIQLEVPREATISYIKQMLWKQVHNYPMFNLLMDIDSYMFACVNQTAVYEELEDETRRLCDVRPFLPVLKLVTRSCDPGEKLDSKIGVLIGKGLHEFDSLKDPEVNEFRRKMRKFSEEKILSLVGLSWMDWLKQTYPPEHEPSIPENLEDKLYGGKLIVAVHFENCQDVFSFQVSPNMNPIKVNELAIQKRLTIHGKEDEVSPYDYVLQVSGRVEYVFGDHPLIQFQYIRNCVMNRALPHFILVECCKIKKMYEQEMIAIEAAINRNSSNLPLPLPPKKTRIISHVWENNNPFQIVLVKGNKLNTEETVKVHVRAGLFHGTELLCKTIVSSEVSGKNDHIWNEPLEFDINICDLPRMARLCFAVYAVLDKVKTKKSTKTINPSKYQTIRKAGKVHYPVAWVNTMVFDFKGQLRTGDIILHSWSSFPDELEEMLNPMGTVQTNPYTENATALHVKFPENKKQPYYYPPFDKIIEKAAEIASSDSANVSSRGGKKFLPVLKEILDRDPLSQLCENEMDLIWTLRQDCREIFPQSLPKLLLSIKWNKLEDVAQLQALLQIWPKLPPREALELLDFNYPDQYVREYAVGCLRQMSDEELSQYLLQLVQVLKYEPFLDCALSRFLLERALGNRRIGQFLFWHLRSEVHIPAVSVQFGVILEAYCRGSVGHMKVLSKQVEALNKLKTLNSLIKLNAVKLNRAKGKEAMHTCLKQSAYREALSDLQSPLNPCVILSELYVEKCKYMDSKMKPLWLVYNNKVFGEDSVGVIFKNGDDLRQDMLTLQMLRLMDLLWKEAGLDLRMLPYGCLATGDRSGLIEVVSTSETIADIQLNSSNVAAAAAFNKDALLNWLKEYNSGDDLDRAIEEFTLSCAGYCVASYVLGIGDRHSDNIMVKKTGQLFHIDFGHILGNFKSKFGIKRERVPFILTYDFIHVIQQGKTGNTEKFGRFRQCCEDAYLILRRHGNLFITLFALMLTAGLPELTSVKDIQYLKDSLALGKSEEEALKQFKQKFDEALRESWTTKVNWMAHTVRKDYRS
Chain of PI3-kinase p110-alpha/p85-alpha (P27986 whole entry): as the sequence (P27986 whole entry, one chain of several) above
Chain of PI3-kinase p110-alpha/p85-alpha (P42336 whole entry): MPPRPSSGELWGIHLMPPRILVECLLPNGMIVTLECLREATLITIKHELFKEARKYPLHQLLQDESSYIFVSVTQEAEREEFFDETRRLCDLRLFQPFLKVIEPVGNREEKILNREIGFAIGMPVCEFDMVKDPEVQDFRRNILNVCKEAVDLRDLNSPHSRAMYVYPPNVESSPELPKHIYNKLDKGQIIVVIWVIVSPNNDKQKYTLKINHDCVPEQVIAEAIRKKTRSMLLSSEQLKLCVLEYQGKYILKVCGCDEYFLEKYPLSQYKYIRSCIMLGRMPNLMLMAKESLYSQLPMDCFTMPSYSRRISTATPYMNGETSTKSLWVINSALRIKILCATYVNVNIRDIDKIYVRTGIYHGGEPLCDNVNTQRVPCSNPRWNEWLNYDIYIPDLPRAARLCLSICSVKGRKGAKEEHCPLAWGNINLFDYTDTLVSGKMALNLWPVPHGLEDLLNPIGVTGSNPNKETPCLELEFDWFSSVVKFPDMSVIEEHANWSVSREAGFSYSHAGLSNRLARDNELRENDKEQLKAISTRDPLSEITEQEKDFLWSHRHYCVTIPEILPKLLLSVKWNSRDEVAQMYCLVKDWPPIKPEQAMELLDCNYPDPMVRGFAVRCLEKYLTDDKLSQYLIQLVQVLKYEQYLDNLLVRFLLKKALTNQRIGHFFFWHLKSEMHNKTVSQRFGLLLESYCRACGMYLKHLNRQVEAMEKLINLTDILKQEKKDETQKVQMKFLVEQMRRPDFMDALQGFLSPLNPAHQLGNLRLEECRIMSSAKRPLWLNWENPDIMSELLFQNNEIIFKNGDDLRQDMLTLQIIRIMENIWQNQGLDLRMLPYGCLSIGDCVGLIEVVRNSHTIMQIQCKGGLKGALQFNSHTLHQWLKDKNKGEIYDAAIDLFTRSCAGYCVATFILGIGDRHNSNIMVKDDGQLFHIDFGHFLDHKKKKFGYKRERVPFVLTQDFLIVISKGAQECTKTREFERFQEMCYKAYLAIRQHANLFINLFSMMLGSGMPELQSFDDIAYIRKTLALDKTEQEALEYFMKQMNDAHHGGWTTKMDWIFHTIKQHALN

half-life [2] [h]	metabolised at 0.5 h, 5 µM [3] [%]	AUC [4] [µg·h/g]	IC50 [6] [nM]	AUC [7] [ng·h/mL]	IC50 (PI3K p110 beta/p85 alpha) [nM]	Cmax [8] [ng/mL]	half-life [9] [h]	solubility thermodynamic [11] [µg/mL]	IC50 [12] [nM]	IC50 [14] [nM]	metabolised at 0.5 h, 5 µM [15] [%]	half-life [17] [h]	half-life [18] [h]	AUC [19] [µg·h/g]	AUC [20] [ng·h/mL]	metabolised at 2 h, 5 µM [21] [%]	clearance [23] [mL/min/kg]	metabolised at 2 h, 5 µM [24] [%]	AUC [25] [ng·h/mL]	Structure (SMILES)	further results
1.7	32	15.5	2.7	5.3	10	455	3.2	3 (≈ 5.05 µM)	0.5	1900	68	2.8	3.2	459.6	171	30	96	10	96.5	Cc1ccn2nc([C@H](C)Nc3ncnc4[nH]cc(-c5cc(NS(C)(=O)=O)cc6[nH]ccc56)c34)n(-c3ccccc3)c(=O)c12	inhibition in vivo at 0.3 mg/kg (Rattus norvegicus [1]): 55%; inhibition (INH) [5]: Not Active; Ratio [10, 40]: 4763; inhibition in vivo at 0.1 mg/kg (Rattus norvegicus [13]): 21%; Ratio [16, 40]: 2925; inhibition in vivo at 0.3 mg/kg (Rattus norvegicus [22]): 77%; Vd [26]: 5.2 L/kg; fraction unbound at 1 µM [27]: 0.011; bioavailability [28]: 1%; Cmax [29]: 3400 ng/g; inhibition in vivo at 0.1 mg/kg (Rattus norvegicus [30]): 42%; Cmax [31]: 73300 ng/g; Cmax [32]: 1.4 ng/mL; half-life [33]: 4.5 h; Papp at 20 µM [34]: 0.2 ×10⁻⁶ cm/s; Cmax [35]: 16400 ng/mL; IC50 [36]: 36 nM; fCmax (Rattus norvegicus [37]): 0.3 nM
1	44	0.2	4.4	6.4	87	236	0.7	36 (≈ 76.4 µM)	0.5	1100	71	4.7	1.1	30.6	149	97	112	96	148	Cc1ccn2nc([C@H](C)Nc3ncnc(N)c3-c3ccc(O)c(F)c3)n(-c3ccccc3)c(=O)c12	Kp [10, 41]: 207; Kp [16, 41]: 31; Vd [26]: 5.2 L/kg; fraction unbound at 1 µM [27]: 0.054; bioavailability [28]: 13%; Cmax [29]: 700 ng/g; Cmax [31]: 18600 ng/g; inhibition in vivo at 1 mg/kg (Rattus norvegicus [38]): 37%; Cmax [32]: 36.3 ng/mL; half-life [33]: 5.7 h; Papp at 20 µM [34]: 1.7 ×10⁻⁶ cm/s; IC50 [36]: 11 nM
–	–	–	–	–	–	–	–	–	–	–	–	–	–	–	–	–	–	–	–	Cc1ccccc1-n1c(CN2CNc3c(N)ncnc32)nc2cccc(C)c2c1=O	IC50 [39]: 130 nM
